The source of these data is patent US7687500B2, “Substituted oxetanes, method of making, and method of use thereof” (The University of Connecticut, priority 2004, dated 2010).

The structures appear in SMILES notation.

One series relates to HIV. The conditions noted are these: in vitro; cited from earlier work.

In the case of `Nc1ncnc2c1ncn2[C@@H]1O[C@H](CO)[C@H]1CO` [oxetanocin], the anti-HIV activity result with HIV is “potent anti-HIV activity in vitro”. As usually defined, the melting point is the temperature, or range, at which the solid turns liquid. Take `OCC1(n2nc3ccccc3n2)OCC1c1ccccc1` (stereo not drawn) [Example 1, 2-(Benzotriazol-2-yl)-2-(hydroxymethyl)-3-phenyloxetane]: the melting point lay in the range of 119 to 123 °C.

In turn, `OCC1(n2nccn2)OCC1c1ccccc1` (stereo not drawn) [Example 2, 2-Hydroxymethyl-3-phenyl-2-(1,2,3-triazol-2-yl)oxetane] displayed a melting point of 77 to 78.3 °C.
